The text below walks through data of ChEMBL document CHEMBL4052714, “Synthesis and antibacterial activity of novel 4″-O-(1-aralkyl-1,2,3-triazol-4-methyl-carbamoyl) azithromycin analogs” (2017).

Holding throughout (assay type): functional
The test system of experiment [1] is Staphylococcus aureus. Briefly: Antibacterial activity against methicillin-susceptible Staphylococcus aureus ATCC 29213.
For the next experiment, the system named is Pseudomonas aeruginosa. Briefly: Antibacterial activity against Pseudomonas aeruginosa ATCC 27853.
Experiment [2] concerns Staphylococcus aureus. Briefly: Antibacterial activity against erythromycin-susceptible Staphylococcus aureus ATCC 25923.
The next experiment deals with Escherichia coli. Briefly: Antibacterial activity against Escherichia coli ATCC 25922.
Experiment [3] deals with Streptococcus pneumoniae. Briefly: Antibacterial activity against erythromycin-resistant Streptococcus pneumoniae A22072 expressing mefA gene.
In experiment [4] the test system is Streptococcus pyogenes. Briefly: Antibacterial activity against erythromycin-resistant Streptococcus pyogenes isolate R2.
Experiment [5] concerns Streptococcus pneumoniae. Briefly: Antibacterial activity against erythromycin-resistant Streptococcus pneumoniae AB11 expressing ermB/mefA gene.
Experiment [6] relates to Streptococcus pneumoniae. Briefly: Antibacterial activity against erythromycin-resistant Streptococcus pneumoniae B1 expressing ermB gene.
Experiment [7] relates to Streptococcus pneumoniae. Briefly: Antibacterial activity against erythromycin-susceptible Streptococcus pneumoniae ATCC 49619.
In experiment [8] the test system is Streptococcus pyogenes. Briefly: Antibacterial activity against erythromycin-susceptible Streptococcus pyogenes isolate S2.

≈ marks a conversion by molar mass, not a printed value. A value given as a limit tells only on which side of the number the result lay.

As to `CC[C@H]1OC(=O)[C@H](C)[C@@H](O[C@H]2C[C@@](C)(OC)[C@@H](OC(=O)NCc3cn(Cc4ccccc4Cl)nn3)[C@H](C)O2)[C@H](C)[C@@H](O[C@@H]2O[C@H](C)C[C@H](N(C)C)[C@H]2O)[C@](C)(O)C[C@@H](C)CN(C)[C@H](C)[C@H]2OC(=O)O[C@@]21C`, the MIC was determined as 32 µg/mL (≈ 31.3 µM) against Staphylococcus aureus [1]; 64 µg/mL (≈ 62.5 µM) with Pseudomonas aeruginosa; 4 µg/mL (≈ 3.91 µM) with Staphylococcus aureus [2]; 128 µg/mL (≈ 125 µM) in the experiment on Escherichia coli; 2 µg/mL (≈ 1.95 µM) in the experiment with Streptococcus pneumoniae [3]; 16 µg/mL (≈ 15.6 µM) in the experiment on Streptococcus pyogenes [4]. Also, the MIC in the experiment with Streptococcus pneumoniae [5] was 4 µg/mL (≈ 3.91 µM); with Streptococcus pneumoniae [6], 8 µg/mL (≈ 7.82 µM); against Streptococcus pneumoniae [7], 1 µg/mL (≈ 0.977 µM); in the experiment with Streptococcus pyogenes [8], 0.06 µg/mL (≈ 0.0586 µM).

On to `CC[C@H]1OC(=O)[C@H](C)[C@@H](O[C@H]2C[C@@](C)(OC)[C@@H](OC(=O)NCc3cn(Cc4c(Cl)cccc4Cl)nn3)[C@H](C)O2)[C@H](C)[C@@H](O[C@@H]2O[C@H](C)C[C@H](N(C)C)[C@H]2O)[C@](C)(O)C[C@@H](C)CN(C)[C@H](C)[C@@H](OC(=O)NCc2ccccc2)[C@]1(C)O`, for which the MIC in the experiment on Staphylococcus aureus [1] worked out at 16 µg/mL (≈ 13.7 µM); with Pseudomonas aeruginosa, 32 µg/mL (≈ 27.5 µM); in the experiment with Staphylococcus aureus [2], 0.25 µg/mL (≈ 0.215 µM); in the experiment on Escherichia coli, 32 µg/mL (≈ 27.5 µM); in the experiment with Streptococcus pneumoniae [3], 0.25 µg/mL (≈ 0.215 µM); in the experiment on Streptococcus pyogenes [4], 64 µg/mL (≈ 54.9 µM). Besides, the minimal inhibitory concentration (MIC) with Streptococcus pneumoniae [5] is 0.25 µg/mL (≈ 0.215 µM); in the experiment with Streptococcus pneumoniae [6], 0.25 µg/mL (≈ 0.215 µM); in the experiment on Streptococcus pneumoniae [7], 0.125 µg/mL (≈ 0.107 µM); with Streptococcus pyogenes [8], below 0.002 µg/mL.

On to `CC[C@H]1OC(=O)[C@H](C)[C@@H](O[C@H]2C[C@@](C)(OC)[C@@H](OC(=O)NCc3cn(Cc4ccc(Br)cc4)nn3)[C@H](C)O2)[C@H](C)[C@@H](O[C@@H]2O[C@H](C)C[C@H](N(C)C)[C@H]2O)[C@](C)(O)C[C@@H](C)CN(C)[C@H](C)[C@H]2OC(=O)O[C@@]21C`, for which the MIC amounted to 32 µg/mL (≈ 30 µM) against Staphylococcus aureus [1]; 64 µg/mL (≈ 59.9 µM) in the experiment on Pseudomonas aeruginosa; 2 µg/mL (≈ 1.87 µM) against Staphylococcus aureus [2]; 128 µg/mL (≈ 120 µM) with Escherichia coli; 1 µg/mL (≈ 0.936 µM) in the experiment on Streptococcus pneumoniae [3]; 32 µg/mL (≈ 30 µM) with Streptococcus pyogenes [4]. For the same molecule, the MIC in the experiment on Streptococcus pneumoniae [5] was 1 µg/mL (≈ 0.936 µM); in the experiment on Streptococcus pneumoniae [6], 4 µg/mL (≈ 3.74 µM); in the experiment on Streptococcus pneumoniae [7], 1 µg/mL (≈ 0.936 µM); in the experiment on Streptococcus pyogenes [8], 0.06 µg/mL (≈ 0.0562 µM).

For the molecule `CC[C@H]1OC(=O)[C@H](C)[C@@H](O[C@H]2C[C@@](C)(OC)[C@@H](OC(=O)NCc3cn(Cc4ccccc4)nn3)[C@H](C)O2)[C@H](C)[C@@H](O[C@@H]2O[C@H](C)C[C@H](N(C)C)[C@H]2O)[C@](C)(O)C[C@@H](C)CN(C)[C@H](C)[C@@H](OC(=O)NCc2ccccc2)[C@]1(C)O`, the MIC worked out at 16 µg/mL (≈ 14.6 µM) against Staphylococcus aureus [1]; 32 µg/mL (≈ 29.2 µM) in the experiment on Pseudomonas aeruginosa; 0.016 µg/mL (≈ 0.0146 µM) with Staphylococcus aureus [2]; 16 µg/mL (≈ 14.6 µM) with Escherichia coli; 0.25 µg/mL (≈ 0.228 µM) against Streptococcus pneumoniae [3]; 32 µg/mL (≈ 29.2 µM) in the experiment on Streptococcus pyogenes [4]. Further, the MIC in the experiment on Streptococcus pneumoniae [5] is 0.25 µg/mL (≈ 0.228 µM); in the experiment with Streptococcus pneumoniae [6] it was 0.25 µg/mL (≈ 0.228 µM); in the experiment on Streptococcus pneumoniae [7], 0.125 µg/mL (≈ 0.114 µM); with Streptococcus pyogenes [8] it was below 0.002 µg/mL.

For `CC[C@H]1OC(=O)[C@H](C)[C@@H](O[C@H]2C[C@@](C)(OC)[C@@H](OC(=O)NCc3cn(Cc4cccc(Cl)c4)nn3)[C@H](C)O2)[C@H](C)[C@@H](O[C@@H]2O[C@H](C)C[C@H](N(C)C)[C@H]2O)[C@](C)(O)C[C@@H](C)CN(C)[C@H](C)[C@@H](O)[C@]1(C)O`, the MIC came to 8 µg/mL (≈ 8.02 µM) against Staphylococcus aureus [1]; 32 µg/mL (≈ 32.1 µM) with Pseudomonas aeruginosa; 1 µg/mL (≈ 1 µM) against Staphylococcus aureus [2]; 16 µg/mL (≈ 16 µM) in the experiment with Escherichia coli; 0.25 µg/mL (≈ 0.251 µM) in the experiment with Streptococcus pneumoniae [3]; 64 µg/mL (≈ 64.1 µM) against Streptococcus pyogenes [4]. For the same molecule, the MIC stood at 1 µg/mL (≈ 1 µM) against Streptococcus pneumoniae [5], 0.5 µg/mL (≈ 0.501 µM) against Streptococcus pneumoniae [6], 0.25 µg/mL (≈ 0.251 µM) against Streptococcus pneumoniae [7] and 0.06 µg/mL (≈ 0.0601 µM) against Streptococcus pyogenes [8].

As for `CC[C@H]1OC(=O)[C@H](C)[C@@H](O[C@H]2C[C@@](C)(OC)[C@@H](OC(=O)NCc3cn(C4CCCCC4)nn3)[C@H](C)O2)[C@H](C)[C@@H](O[C@@H]2O[C@H](C)C[C@H](N(C)C)[C@H]2O)[C@](C)(O)C[C@@H](C)CN(C)[C@H](C)[C@H]2OC(=O)O[C@@]21C`, the MIC against Staphylococcus aureus [1] was 64 µg/mL (≈ 65.2 µM); with Pseudomonas aeruginosa it was 64 µg/mL (≈ 65.2 µM); against Staphylococcus aureus [2] it was 16 µg/mL (≈ 16.3 µM); in the experiment on Escherichia coli it was 128 µg/mL (≈ 130 µM); in the experiment with Streptococcus pneumoniae [3] it was 1 µg/mL (≈ 1.02 µM); in the experiment with Streptococcus pyogenes [4] it was 32 µg/mL (≈ 32.6 µM). Besides, the MIC against Streptococcus pneumoniae [5] turned out to be 4 µg/mL (≈ 4.08 µM); against Streptococcus pneumoniae [6], 8 µg/mL (≈ 8.15 µM); against Streptococcus pneumoniae [7], 1 µg/mL (≈ 1.02 µM); against Streptococcus pyogenes [8], 0.25 µg/mL (≈ 0.255 µM).

`CC[C@H]1OC(=O)[C@H](C)[C@@H](O[C@H]2C[C@@](C)(OC)[C@@H](OC(=O)NCc3cn(Cc4ccccc4Cl)nn3)[C@H](C)O2)[C@H](C)[C@@H](O[C@@H]2O[C@H](C)C[C@H](N(C)C)[C@H]2O)[C@](C)(O)C[C@@H](C)CN(C)[C@H](C)[C@@H](O)[C@]1(C)O`: the MIC against Staphylococcus aureus [1] is 8 µg/mL (≈ 8.02 µM); against Pseudomonas aeruginosa it was 32 µg/mL (≈ 32.1 µM); in the experiment on Staphylococcus aureus [2] it was 1 µg/mL (≈ 1 µM); in the experiment with Escherichia coli, 128 µg/mL (≈ 128 µM); in the experiment with Streptococcus pneumoniae [3] it was 0.25 µg/mL (≈ 0.251 µM); against Streptococcus pyogenes [4], 64 µg/mL (≈ 64.1 µM). Also, the MIC worked out at 0.5 µg/mL (≈ 0.501 µM) in the experiment with Streptococcus pneumoniae [5], 1 µg/mL (≈ 1 µM) against Streptococcus pneumoniae [6], 0.25 µg/mL (≈ 0.251 µM) with Streptococcus pneumoniae [7] and 0.03 µg/mL (≈ 0.0301 µM) in the experiment on Streptococcus pyogenes [8].

As to `CC[C@H]1OC(=O)[C@H](C)[C@@H](O[C@H]2C[C@@](C)(OC)[C@@H](OC(=O)NCc3cn(Cc4ccc(C)cc4)nn3)[C@H](C)O2)[C@H](C)[C@@H](O[C@@H]2O[C@H](C)C[C@H](N(C)C)[C@H]2O)[C@](C)(O)C[C@@H](C)CN(C)[C@H](C)[C@H]2OC(=O)O[C@@]21C`, the MIC with Staphylococcus aureus [1] was determined as 64 µg/mL (≈ 63.8 µM); in the experiment with Pseudomonas aeruginosa it was 64 µg/mL (≈ 63.8 µM); in the experiment on Staphylococcus aureus [2] it was 4 µg/mL (≈ 3.99 µM); with Escherichia coli, 128 µg/mL (≈ 128 µM); with Streptococcus pneumoniae [3], 1 µg/mL (≈ 0.997 µM); against Streptococcus pyogenes [4], 64 µg/mL (≈ 63.8 µM). In addition, the MIC was determined as 1 µg/mL (≈ 0.997 µM) against Streptococcus pneumoniae [5], 2 µg/mL (≈ 1.99 µM) against Streptococcus pneumoniae [6], 1 µg/mL (≈ 0.997 µM) with Streptococcus pneumoniae [7] and 0.25 µg/mL (≈ 0.249 µM) in the experiment on Streptococcus pyogenes [8].

`CC[C@H]1OC(=O)[C@H](C)[C@@H](O[C@H]2C[C@@](C)(OC)[C@@H](OC(=O)NCc3cn(Cc4ccc([N+](=O)[O-])cc4)nn3)[C@H](C)O2)[C@H](C)[C@@H](O[C@@H]2O[C@H](C)C[C@H](N(C)C)[C@H]2O)[C@](C)(O)C[C@@H](C)CN(C)[C@H](C)[C@H]2OC(=O)O[C@@]21C`: the MIC against Staphylococcus aureus [1] was determined as 32 µg/mL (≈ 30.9 µM); in the experiment on Pseudomonas aeruginosa, 64 µg/mL (≈ 61.9 µM); in the experiment on Staphylococcus aureus [2] it was 4 µg/mL (≈ 3.87 µM); against Escherichia coli it was 64 µg/mL (≈ 61.9 µM); against Streptococcus pneumoniae [3], 4 µg/mL (≈ 3.87 µM); against Streptococcus pyogenes [4], 128 µg/mL (≈ 124 µM). In addition, the MIC in the experiment with Streptococcus pneumoniae [5] worked out at 0.5 µg/mL (≈ 0.483 µM); in the experiment on Streptococcus pneumoniae [6], 4 µg/mL (≈ 3.87 µM); in the experiment with Streptococcus pneumoniae [7], 1 µg/mL (≈ 0.967 µM); in the experiment on Streptococcus pyogenes [8], 0.008 µg/mL (≈ 0.00774 µM).

`CC[C@H]1OC(=O)[C@H](C)[C@@H](O[C@H]2C[C@@](C)(OC)[C@@H](OC(=O)NCc3cn(Cc4cccc(C)c4)nn3)[C@H](C)O2)[C@H](C)[C@@H](O[C@@H]2O[C@H](C)C[C@H](N(C)C)[C@H]2O)[C@](C)(O)C[C@@H](C)CN(C)[C@H](C)[C@H]2OC(=O)O[C@@]21C`: the minimum inhibitory concentration (MIC) against Staphylococcus aureus [1] is 32 µg/mL (≈ 31.9 µM); in the experiment on Pseudomonas aeruginosa, 64 µg/mL (≈ 63.8 µM); against Staphylococcus aureus [2], 2 µg/mL (≈ 1.99 µM); against Escherichia coli, 128 µg/mL (≈ 128 µM); with Streptococcus pneumoniae [3], 2 µg/mL (≈ 1.99 µM); against Streptococcus pyogenes [4], 64 µg/mL (≈ 63.8 µM). Further, the MIC came to 2 µg/mL (≈ 1.99 µM) in the experiment on Streptococcus pneumoniae [5], 4 µg/mL (≈ 3.99 µM) in the experiment with Streptococcus pneumoniae [6], 1 µg/mL (≈ 0.997 µM) against Streptococcus pneumoniae [7] and 0.25 µg/mL (≈ 0.249 µM) against Streptococcus pyogenes [8].
